The text below walks through data of patent publication US10272045B2 (priority 2015, dated 2019).

The conditions of series [1]: human, in vivo, cited from earlier work.
The conditions of series [2]: dog, in vivo.

A value given as a limit tells only on which side of the number the result lay.

On to arsenic acid [Asv], for which the level in plasma entry in series [1] is “relatively low levels”.

On to `O=[As]O[As]=O` (stereo not drawn) [SV100], for which, in series [2], the oral absorption result is reported as “very limited absorption” and the “oral bioavailability (F^b %)” value is under 10%.

Turning to arsenious acid [AsIII], the “time to peak plasma concentration (end of infusion)” value in series [1] (0.15 mg/kg) was 2 h. In series [1], the “accumulation, Day 25 versus Day 1 of Cycle 1” value is reported as about 2 fold; the mean elimination half-life was 10 to 14 h; the renal clearance is given as 9 L/h; the total clearance was 49 L/h. In addition, the “volume of distribution (Vss)” value in series [1] is 562 L.
